IC50 data for 20 compounds are collected here from patent US10479780B2, “Aminopyrazole derivatives” (Chugai Seiyaku Kabushiki Kaisha, priority 2015, dated 2019).

Holding throughout (format): biochemical
Assay [1] concerns the target T1, human Lck enzyme (Homo sapiens, UniProt P06239).
T1 construct: purchased Carna Biosciences, Inc. 08-170
The assay is described as follows: Lck enzyme inhibitory activity (time-resolved fluorometry, biotinylated peptide phosphorylation). The note with it: read-out: LCK_IC50. The essentials: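 Readout pairs a europium cryptate-labelled anti-phosphotyrosine antibody with XL665-streptavidin, measured by time-resolved fluorescence. IC50 derived from percent inhibition against untreated controls.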

The target of assay [2] is T2, human Yes1 enzyme (Homo sapiens, UniProt P07947).
T2 construct: made in house
Briefly: Yes1 enzyme inhibitory activity (time-resolved fluorometry, biotinylated peptide phosphorylation). Particulars: read-out: YES_IC50. The essentials:
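Inhibition was expressed against a compound-free control to give IC50, using TR-FRET read-out (Eu-cryptate anti-pTyr antibody, streptavidin-XL665).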

For assay [3], the target named is T3, human Src enzyme (Homo sapiens, UniProt P12931).
T3 construct: purchased Carna Biosciences, Inc. 08-173
The assay is described as follows: Src enzyme inhibitory activity (time-resolved fluorometry, biotinylated peptide phosphorylation). The note with it: read-out: SRC_IC50. The essentials: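 Compounds were tested for blocking tyrosine phosphorylation of a biotinylated peptide substrate by recombinant human Src. Phosphorylated product was quantified by time-resolved fluorometry using europium cryptate and XL665 conjugates, and IC50 was calculated against the compound-free control.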

Setting [4] is: biotinylated peptide phosphorylation.

Read-outs that look alike come from different tables or passages of the source.

T3 sequence (P12931 whole entry): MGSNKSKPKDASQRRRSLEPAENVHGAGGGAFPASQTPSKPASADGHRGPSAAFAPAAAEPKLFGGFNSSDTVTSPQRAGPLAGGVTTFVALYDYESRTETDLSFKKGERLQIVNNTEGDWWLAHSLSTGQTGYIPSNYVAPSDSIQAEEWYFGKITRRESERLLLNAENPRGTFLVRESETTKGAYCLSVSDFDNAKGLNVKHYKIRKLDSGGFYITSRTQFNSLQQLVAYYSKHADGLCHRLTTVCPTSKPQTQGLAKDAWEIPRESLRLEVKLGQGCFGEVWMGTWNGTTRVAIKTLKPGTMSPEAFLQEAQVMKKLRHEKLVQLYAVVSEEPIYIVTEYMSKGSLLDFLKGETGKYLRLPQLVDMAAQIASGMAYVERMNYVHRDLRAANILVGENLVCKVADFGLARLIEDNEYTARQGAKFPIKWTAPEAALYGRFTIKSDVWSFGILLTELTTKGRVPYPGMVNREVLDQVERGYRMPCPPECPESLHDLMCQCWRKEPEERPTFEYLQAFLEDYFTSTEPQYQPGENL
T2 sequence (P07947 whole entry): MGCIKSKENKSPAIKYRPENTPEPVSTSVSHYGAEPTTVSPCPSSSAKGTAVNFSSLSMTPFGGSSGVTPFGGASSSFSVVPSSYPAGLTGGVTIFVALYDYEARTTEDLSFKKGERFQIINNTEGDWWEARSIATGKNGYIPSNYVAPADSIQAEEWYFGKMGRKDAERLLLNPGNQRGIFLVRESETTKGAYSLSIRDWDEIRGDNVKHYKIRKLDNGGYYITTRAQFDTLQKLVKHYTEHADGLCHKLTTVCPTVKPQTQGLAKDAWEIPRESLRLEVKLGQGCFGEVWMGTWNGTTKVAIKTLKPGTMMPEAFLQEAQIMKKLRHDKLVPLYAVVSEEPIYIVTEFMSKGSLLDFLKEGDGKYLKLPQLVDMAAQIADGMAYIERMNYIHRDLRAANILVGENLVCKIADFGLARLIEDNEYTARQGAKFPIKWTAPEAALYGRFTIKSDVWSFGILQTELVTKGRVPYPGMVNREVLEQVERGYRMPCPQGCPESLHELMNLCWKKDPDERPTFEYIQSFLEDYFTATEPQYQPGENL
T1 sequence (P06239 whole entry): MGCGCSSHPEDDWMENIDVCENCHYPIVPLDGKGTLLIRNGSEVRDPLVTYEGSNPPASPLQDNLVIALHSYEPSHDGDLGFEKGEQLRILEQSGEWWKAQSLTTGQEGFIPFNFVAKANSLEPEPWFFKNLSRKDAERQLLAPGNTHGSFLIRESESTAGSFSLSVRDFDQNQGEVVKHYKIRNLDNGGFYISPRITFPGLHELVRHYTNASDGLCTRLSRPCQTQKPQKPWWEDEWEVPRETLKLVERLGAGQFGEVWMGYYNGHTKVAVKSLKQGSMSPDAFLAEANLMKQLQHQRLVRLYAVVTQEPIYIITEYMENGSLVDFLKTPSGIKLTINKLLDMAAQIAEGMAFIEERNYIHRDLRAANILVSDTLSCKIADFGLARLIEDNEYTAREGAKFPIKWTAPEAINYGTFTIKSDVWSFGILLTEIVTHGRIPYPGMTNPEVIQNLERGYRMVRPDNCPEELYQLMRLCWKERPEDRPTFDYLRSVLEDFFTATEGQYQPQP

On to `Cc1cc2cc(C(=O)c3cnn(-c4cnc(Oc5cc(F)ccc5F)cc4C)c3N)[nH]c2cc1NS(C)(=O)=O` [Example 5-1-081, N-[2-[5-amino-1-[6-(2,5-difluorophenoxy)-4-methylpyridin-3-yl]pyrazole-4-carbonyl]-5-methyl-1H-indol-6-yl]methanesulfonamide], for which the IC50 worked out at 6.4 nM in assay [1], 2.4 nM in assay [2] and 110 nM in assay [3].
`Cc1cc(Oc2ccccc2F)ccc1-n1ncc(C(=O)c2cc3cc(OCC(F)F)c(N4CCCC4=O)cc3[nH]2)c1N` [Example 4-21-002, 1-[2-[5-amino-1-[4-(2-fluorophenoxy)-2-methylphenyl]pyrazole-4-carbonyl]-5-(2,2-difluoroethoxy)-1H-indol-6-yl]pyrrolidin-2-one]: the IC50 in assay [1] (setting [4]) was found to be 2.8 nM; in assay [2] (setting [4]) it was 0.89 nM; in assay [3] (setting [4]) it was 5.4 nM.
`Cc1cc(Oc2c(F)cccc2F)ncc1-n1ncc(C(=O)c2cc3cc(OCC(F)F)c(-n4c(C)cc(=O)[nH]c4=O)cc3[nH]2)c1N` [Example 4-23-029, 1-{2-{5-amino-1-[6-(2,6-difluorophenoxy)-4-methylpyridin-3-yl]pyrazole-4-carbonyl}-5-(2,2-difluoroethoxy)-1H-indol-6-yl}-6-methylpyrimidine-2,4-dione]: the IC50 in assay [1] (setting [4]) was 6.1 nM; in assay [2] (setting [4]), 4.7 nM; in assay [3] (setting [4]), 34 nM.
For `Cc1cc2cc(C(=O)c3cnn(-c4cnc(Oc5c(F)cccc5F)cc4C)c3N)[nH]c2cc1N1C(=O)NC2(CCNC2)C1=O` (stereo not drawn) [Example 5-1-358, 3-[2-[5-amino-1-[6-(2,6-difluorophenoxy)-4-methylpyridin-3-yl]pyrazole-4-carbonyl]-5-methyl-1H-indol-6-yl]-1,3,7-triazaspiro[4.4] nonane-2,4-dione], the values for the IC50 in assay [1], in assay [2] and in assay [3] were 4.2 nM, 1.8 nM and 21 nM, respectively.
For the compound `Cc1cc2cc(C(=O)c3cnn(-c4cnc(Oc5c(F)cccc5F)cc4C)c3N)[nH]c2cc1N1C(=O)CNC1=O` [Example 5-1-442, 3-[2-[5-amino-1-[6-(2,6-difluorophenoxy)-4-methylpyridin-3-yl]pyrazolo-4-carbonyl]-5-methyl-1H-indol-6-yl]imidazolidine-2,4-dione], the results for the IC50 in assay [1] (setting [4]), in assay [2] (setting [4]) and in assay [3] (setting [4]) were 4.9 nM, 1.2 nM and 21 nM, respectively.
As to `Cc1cc(Oc2ccccc2F)ccc1-n1ncc(C(=O)c2cc3cc(OCC(F)F)c(NS(=O)(=O)c4cccc(C#N)c4)cc3[nH]2)c1N` [Example 5-1-416, N-[2-[5-amino-1-[4-(2-fluorophenoxy)-2-methylphenyl]pyrazole-4-carbonyl]-5-(2,2-difluoroethoxy)-1H-indol-6-yl]-3-cyanobenzenesulfonamide], the IC50 in assay [1] (setting [4]) turned out to be 58 nM; in assay [2] (setting [4]), 3.4 nM; in assay [3] (setting [4]) it was 210 nM.
Consider `Cc1cc(Oc2ccccc2F)ccc1-n1ncc(C(=O)c2cc3cc(OC4CCN(C(C)C)CC4)c(F)cc3[nH]2)c1N` [Example 5-1-203, [5-amino-1-[4-(2-fluorophenoxy)-2-methylphenyl]pyrazol-4-yl]-[6-fluoro-5-(1-propan-2-ylpiperidin-4-yl)oxy-1H-indol-2-yl]methanone], for which the IC50 in assay [1] was found to be 6.2 nM; in assay [2] it was 0.36 nM; in assay [3], 7 nM.
Consider `Cc1cc(Oc2c(F)cccc2F)ncc1-n1ncc(C(=O)c2cc3cc(F)c(N4CC(C)(C)NS4(=O)=O)cc3[nH]2)c1N` [Example 5-1-398, [5-amino-1-[6-(2,6-difluorophenoxy)-4-methylpyridin-3-yl]pyrazol-4-yl]-[6-(4,4-dimethyl-1,1-dioxo-1,2,5-thiadiazolidin-2-yl)-5-fluoro-1H-indol-2-yl]methanone], for which the results for the IC50 in assay [1], in assay [2] and in assay [3] were 20 nM, 2.4 nM and 95 nM, respectively.
As for `Cc1cc2cc(C(=O)c3cnn(-c4cnc(Oc5c(F)cccc5F)cc4C)c3N)[nH]c2cc1N1C(=O)NC2(CC2)C1=O` [Example 5-1-366, 6-[2-[5-amino-1-[6-(2,6-difluorophenoxy)-4-methylpyridin-3-yl]pyrazole-4-carbonyl]-5-methyl-1H-indol-6-yl]-4,6-diazaspiro[2.4] heptane-5,7-dione], the IC50 in assay [1] came out at 9.9 nM; in assay [2], 3.7 nM; in assay [3], 39 nM.
Consider `Cc1cc(Oc2c(F)cccc2F)ncc1-n1ncc(C(=O)c2cc3cc(F)c(N4C(=O)NC5(CC5)C4=O)cc3[nH]2)c1N` [Example 5-1-343, 6-[2-[5-amino-1-[6-(2,6-difluorophenoxy)-4-methylpyridin-3-yl]pyrazole-4-carbonyl]-5-fluoro-1H-indol-6-yl]-4,6-diazaspiro[2.4] heptane-5,7-dione], for which the figures for the IC50 in assay [1], in assay [2] and in assay [3] were 7.2 nM, 3 nM and 100 nM, respectively.
For the compound `Cc1cc2cc(C(=O)c3cnn(-c4cnc(Oc5ccccc5F)cc4C)c3N)[nH]c2cc1NS(=O)(=O)c1ccc2ccccc2c1` [Example 5-1-466, N-[2-[5-amino-1-[6-(2-fluorophenoxy)-4-methylpyridin-3-yl]pyrazole-4-carbonyl]-5-methyl-1H-indol-6-yl]naphthalene-2-sulfonamide], the IC50 in assay [1] (setting [4]) is 520 nM; in assay [2] (setting [4]) it was 28 nM; in assay [3] (setting [4]) it was 4400 nM.
The like results for `COc1cc2cc(C(=O)c3cnn(-c4cnc(Oc5ccccc5F)cc4C)c3N)[nH]c2cc1NS(=O)(=O)N1CCOCC1` [Example 4-12-001, N-{2-{5-amino-1-[6-(2-fluorophenoxy)-4-methylpyridin-3-yl]pyrazole-4-carbonyl}-5-methoxy-1H-indol-6-yl}morpholine-4-sulfonamide] were, in that order, 45 nM, 2.9 nM and 140 nM.
On to `Cc1cc2cc(C(=O)c3cnn(-c4ccc(Oc5ccccc5F)cc4C)c3N)[nH]c2cc1N1C(=O)NC2(CCCC2)C1=O` [Example 5-1-373, 3-[2-[5-amino-1-[4-(2-fluorophenoxy)-2-methylphenyl]pyrazole-4-carbonyl]-5-methyl-1H-indol-6-yl]-1,3-diazaspiro[4.4]nonane-2,4-dione], for which the IC50 worked out at 14 nM in assay [1], 3.1 nM in assay [2] and 48 nM in assay [3].
For the compound `Cc1cc(Oc2cccc(Cl)c2)cc(F)c1-n1ncc(C(=O)c2cc3cc(NS(C)(=O)=O)c(F)cc3[nH]2)c1N` [Example 5-1-048, N-[2-[5-amino-1-[4-(3-chlorophenoxy)-2-fluoro-6-methylphenyl]pyrazole-4-carbonyl]-6-fluoro-1H-indol-5-yl]methanesulfonamide], the IC50 is 6.4 nM in assay [1], 1.6 nM in assay [2] and 110 nM in assay [3].
As to `Cc1cc(Oc2cccc(F)c2F)ccc1-n1ncc(C(=O)c2cc3cc(F)c(NS(=O)(=O)CCCF)cc3[nH]2)c1N` [Example 4-2-016, N-[2-[5-amino-1-[4-(2,3-difluorophenoxy)-2-methylphenyl]pyrazole-4-carbonyl]-5-fluoro-1H-indol-6-yl]-3-fluoropropane-1-sulfonamide], the figures for the IC50 in assay [1] (setting [4]), in assay [2] (setting [4]) and in assay [3] (setting [4]) were 19 nM, 2.1 nM and 70 nM, respectively.
On to `Cc1cc(Oc2ccccc2F)ccc1-n1ncc(C(=O)c2cc3cc(OC4CCN(C(C)C)CC4)c(N4CCOCC4)cc3[nH]2)c1N` [Example 5-1-190, [5-amino-1-[4-(2-fluorophenoxy)-2-methylphenyl]pyrazol-4-yl]-[6-morpholin-4-yl-5-(1-propan-2-ylpiperidin-4-yl)oxy-1H-indol-2-yl]methanone], for which the IC50 was 1.3 nM in assay [1], 0.41 nM in assay [2] and 1.8 nM in assay [3].
For `Cc1ccccc1Oc1cc(C)c(-n2ncc(C(=O)c3cc4cc(F)c(NS(=O)(=O)C5CC5)cc4[nH]3)c2N)cn1` [Example 4-2-047, N-[2-[5-amino-1-[4-methyl-6-(2-methylphenoxy)pyridin-3-yl]pyrazole-4-carbonyl]-5-fluoro-1H-indol-6-yl]cyclopropanesulfonamide], the IC50 in assay [1] (setting [4]) came to 64 nM; in assay [2] (setting [4]), 4.5 nM; in assay [3] (setting [4]), 79 nM.
As to `Cc1cc(Oc2ccccc2F)ccc1-n1ncc(C(=O)c2cc3cc(Cl)c(NS(C)(=O)=O)cc3[nH]2)c1N` [Example 4-2-077, N-[2-[5-amino-1-[4-(2-fluorophenoxy)-2-methylphenyl]pyrazole-4-carbonyl]-5-chloro-1H-indol-6-yl]methanesulfonamide], the IC50 in assay [1] (setting [4]) came to 4.3 nM; in assay [2] (setting [4]), 0.64 nM; in assay [3] (setting [4]), 25 nM.
For `Cc1cc(Oc2ccccc2F)ncc1-n1ncc(C(=O)c2cc3cc(F)c(NS(=O)(=O)C4CCOCC4)cc3[nH]2)c1N` [Example 5-1-378, N-[2-[5-amino-1-[6-(2-fluorophenoxy)-4-methylpyridin-3-yl]pyrazole-4-carbonyl]-5-fluoro-1H-indol-6-yl]oxane-4-sulfonamide], the IC50 came to 37 nM in assay [1], 2.8 nM in assay [2] and 63 nM in assay [3].
Consider `Cc1cc2cc(C(=O)c3cnn(-c4cc(C)c(Oc5ccccc5F)cc4C)c3N)[nH]c2cc1NS(C)(=O)=O` [Example 5-1-200, N-[2-[5-amino-1-[4-(2-fluorophenoxy)-2,5-dimethylphenyl]pyrazole-4-carbonyl]-5-methyl-1H-indol-6-yl]methanesulfonamide], for which the IC50 worked out at 270 nM in assay [1], 52 nM in assay [2] and 920 nM in assay [3].
